Values after ≈ are worked out from the molar mass of the structure shown. Where a SMILES comes first, the peptide text is derived from it. Bridges are numbered along the chain shown (N, C = ends). [ ]: non-standard residue; d: D form. The star is where a group is joined. Decanoyl = CCCCCCCCCC(=O)*; Octanoyl = CCCCCCCC(=O)*; Dab = NCC[C@H](N)C(=O)O
Experiments:
[1] = system: K. oxytoca ATCC13182; experiment: Growth inhibition around wells on LB agar plates; assay type: cell-based, Klebsiella oxytoca; settings: 4 μg
Description: (§1) From an overnight-grown culture of IH3080 on LB agar, a suspension of approx. 10^8 cells/ml was prepared in 0.9% NaCl. Aliquots of this suspension were then pipetted on the agar plates and the plates were gently shaken to spread the suspension evenly on the entire surface of the plate. Thereafter, the unabsorbed part of the suspension was removed by using a Pasteur pipette. After the surface had dried, small wells (diameter, 2 mm) were drilled on the plates (five wells per plate) by using a sterile sharp-edged narrow metal tube, single-use pipette tip, and vacuum suction. An alternative method used a swab to spread the inoculum. Samples (4 μl and 10 μl) of the peptide solution in 0.9% NaCl (at concentrations of 1 μg/ml and 0.1 μg/ml) were then pipetted to the wells and the sample fluids were allowed to absorb. Controls included 0.9% NaCl solution without the compound to be tested. The plates were then incubated for 18 h at 37° C. whereafter the diameters of growth inhibition zones around each well were measured; the diameter of the well itself was not reduced. Finally, the diameters were converted to surface areas of growth inhibition (in square mm).
(§2) The susceptibility of eleven Gram-negative bacterial strains (nine different species) to NAB734 and polymyxin B was compared by using the susceptibility determination method described in Example 2. The strains included those belonging to the species of Serratia marcescens and Proteus mirabilis, both species generally known to be resistant to polymyxin. Furthermore, the susceptibility determination was also performed by using the Gram-positive bacterium, Staphylococcus aureus, also generally known to be polymyxin-resistant. Ten of the strains originated from ATCC (American Type Culture Collection, Manassas, Va., U.S.A.), and one from CCUG (Culture Collection of University of Gothenburg, Sweden). The source of E. coli IH3080 has been described in Example 2. Polymyxin B sulfate was from Sigma-Aldrich (St. Louis, Mo., USA).

[2] = system: E. cloacae ATCC23355; experiment: Growth inhibition around wells on LB agar plates; assay type: cell-based, Enterobacter cloacae; settings: 4 μg
Description: as §1, §2

[3] = system: C. freundii ATCC8090; experiment: Growth inhibition around wells on LB agar plates; assay type: cell-based, Citrobacter freundii
Description: as §1, §2

[4] = system: P. mirabilis ATCC29906; experiment: Growth inhibition around wells on LB agar plates; assay type: cell-based, Proteus mirabilis
Description: as §1, §2

[5] = system: S. aureus ATCC 25923; experiment: Growth inhibition around wells on LB agar plates; assay type: cell-based, Staphylococcus aureus
Description: as §1, §2

[6] = system: E. cloacae ATCC23355; experiment: E-test MIC with or without NAB7061 (4 μg/ml), Mueller-Hinton agar; assay type: cell-based, Enterobacter cloacae
Outline: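 MICs were read from antibiotic gradient strips applied according to the manufacturer's instructions.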

[7] = system: E. coli CCUG 41421
Description: Polymyxin B sulfate (Sigma-Aldrich, St. Louis, Mo., USA) was used as a control. […] The bacterial test strains originated from ATCC (10 strains), CCUG (11 strains), and NCTC (3 strains). Fourteen (14) strains (the F-strains) were purchased from Mobidiag Ltd., Helsinki, Finland.
The inocula were prepared by adjusting the bacterial suspensions to a density equivalent to OD546 nm˜0.3 (˜10^8 CFU/ml˜0.5 McFarland) the yeast suspension to a density equivalent to OD546 nm˜0.75 (˜2×10^7 CFU/ml)._The suspensions were diluted to 10^7 CFU/ml. The plates were inoculated by using a Denley Multipoint Inoculator, 1 μl per spot corresponding to approx. 10^4 CFU/spot. Plates were incubated for 16-20 hours at 35° C.

[8] = system: E. coli IH3080; experiment: Experimental E. coli peritonitis model in mice, NAB739 (Example 18); assay type: in vivo
Description: A suspension of E. coli IH3080 (K1:O18) in saline (0.9% NaCl) was prepared from an overnight culture on a blood agar plate (Statens Serum Institut, Copenhagen, Denmark). All mice (female NMR1 from Harlan Scandinavia, Allerød, Denmark; weight, 25-30 g) were inoculated intraperitoneally with 0.5 ml of the suspension containing 0.96×10^6 CFU per ml in the lateral lower quadrant of the abdomen. At 1 h, the CFU count was determined from three mice and the remaining mice (four mice per group) were treated with a subcutaneous injection of 0.2 ml of erythromycin solution in saline (corresponding to 5 mg/kg body weight) or NAB7061 solution in saline (corresponding to 5 mg/kg body weight), or both erythromycin and NAB7061 (corresponding to 5 mg/kg body weight of both drugs; given at two separate sites). Control group received two 0.2 ml injections of saline. At 4.5 h postinfection, all mice were anaesthetized with CO2 and sacrificed. Sterile saline (2 ml) was injected intraperitoneally and the abdomen was gently massaged before it was opened and the fluid sampled. Appropriate dilutions of the fluid were plated on blood agar plates, the plates were incubated overnight, and the colonies were counted.
The experiment was performed by using the methodology described in Example 12.
The mice were inoculated intraperitoneally with 0.5 ml of the E. coli IH3080 suspension containing 1×10^6 CFU per ml. The treatment groups (7 animals per group) were the following: A, control animals receiving saline; B, animals receiving the dose of 1 mg/kg of NAB739 subcutanously at 1 h and at 3 h postinfection; C, animals receiving the dose of 2 mg/kg of NAB739 subcutanously at 1 h and at 3 h postinfection; D, animals receiving the dose of 4 mg/kg of NAB739 subcutanously at 1 h and at 3 h postinfection; E, animals receiving the dose of 2 mg/kg of the control compound, polymyxin B sulfate (Sigma-Aldrich, P0972) subcutanously at 1 h and at 3 h postinfection.

[9] = in vivo; settings: male, Sprague-Dawley, rat, iv, 1 mg/kg
Description: Four rats (Sprague-Dawley, male) were studied.
The samples were analyzed using liquid chromatography and mass spectrometry with electrospray ionization interface (LC/electrospray ionization MS).

Polymyxin B [reference compound]
growth inhibition around a well [1]: 79 square millimeters | growth inhibition around a well [2]: 95 square millimeters | growth inhibition around a well ([3]; 4 μg): 95 square millimeters | growth inhibition around a well ([3]; 10 μg): 154 square millimeters | growth inhibition around a well ([4]; 4 μg): 0 square millimeters | growth inhibition around a well ([4]; 10 μg): 0 square millimeters | growth inhibition around a well ([5]; 4 μg): 0 square millimeters | growth inhibition around a well ([5]; 10 μg): 0 square millimeters | Sensitization factor to antibiotic (MIC without / with 4 μg/ml of NAB 7061) [6]: 4

CCCCCCCCCC(=O)N[C@H](C(=O)N[C@H](CO)C(=O)N[C@H]1CCNC(=O)[C@H]([C@@H](C)O)NC(=O)[C@H](CCN)NC(=O)[C@H](CCN)NC(=O)[C@H](CC(C)C)NC(=O)[C@@H](Cc2ccccc2)NC(=O)[C@H](CCN)NC1=O)[C@@H](C)O [NAB 740, DA-Thr-DSer-cy[Dab-Dab-DPhe-Leu-Dab-Dab-Thr-]] (Decanoyl-T[dS][Dab][Dab][dF]L[Dab][Dab]T; lactam 3-C)
MIC [7]: 2 µg/mL (≈ 1.81 µM)

CCCCCCCC(=O)N[C@H](C(=O)N[C@H](CO)C(=O)N[C@H]1CCNC(=O)[C@H]([C@@H](C)O)NC(=O)[C@H](CCN)NC(=O)[C@H](CCN)NC(=O)[C@H](CC(C)C)NC(=O)[C@@H](Cc2ccccc2)NC(=O)[C@H](CCN)NC1=O)[C@@H](C)O [NAB 739, OA-Thr-DSer-cy[Dab-Dab-DPhe-Leu-Dab-Dab-Thr-]] (Octanoyl-T[dS][Dab][Dab][dF]L[Dab][Dab]T; lactam 3-C)
CFU counts from the peritoneum, fold lower than in the saline control group ([8]; 1 mg/kg s.c. at 1 h and 3 h, 7 h postinfection): ≥ 10 000 fold | CFU counts from the peritoneum, fold lower than in the saline control group ([8]; 2 mg/kg s.c. at 1 h and 3 h, both 4 h and 7 h postinfection): ≥ 10 000 fold | CFU counts from the peritoneum, fold lower than in the saline control group ([8]; 4 mg/kg s.c. at 1 h and 3 h, both 4 h and 7 h postinfection): ≥ 10 000 fold | CL renal ([9]; plasma and urine): 0.53 ± 0.3 mL/min/kg | Vd ([9]; plasma): 0.222 ± 0.0205 L/kg | clearance ([9]; plasma): 2.63 ± 0.54 mL/min/kg | half-life ([9]; plasma): 1.15 ± 0.365 h | dose excreted ([9]; urine): 19.4 ± 7.38%
